# Data published in the NIST ThermoML archive (doi:10.1021/je101008y).
# ± gives the expanded uncertainty stated by the source.
# Assay: activity coefficient (dimensionless); of the first substance listed, at infinite dilution; xn = mol fraction of the nth substance listed
# Settings: Liquid, Chromatography, x1 = 0
activity coefficient (318.15 K),activity coefficient (328.15 K),activity coefficient (338.15 K),activity coefficient (348.15 K),activity coefficient (358.15 K),activity coefficient (318.2 K),activity coefficient (328.2 K),activity coefficient (338.2 K),activity coefficient (348.2 K),activity coefficient (358.2 K),SMILES
333 ± 23,293 ± 20,267 ± 18,234 ± 16,214 ± 15,,,,,,CCCCCCCCC [nonane] + CCCC[N+]1(C)CCCCC1.N#C[S-]
,,,,,3.07 ± 0.21,3.08 ± 0.21,3.09 ± 0.21,3.11 ± 0.21,3.12 ± 0.21,CCCC(C)=O [pentan-2-one] + CCCC[N+]1(C)CCCCC1.N#C[S-]
124 ± 9,104 ± 7,89.3 ± 6.1,78.5 ± 5.4,68.5 ± 4.7,,,,,,CCCCCC [hexane] + CCCC[N+]1(C)CCCCC1.N#C[S-]
,0.332 ± 0.032,0.337 ± 0.032,0.342 ± 0.032,0.348 ± 0.032,,,,,,O [water] + CCCC[N+]1(C)CCCCC1.N#C[S-]
90.6 ± 6.2,83.7 ± 5.7,77.4 ± 5.3,71.5 ± 4.9,67.4 ± 4.6,,,,,,C=CCCCCCC [oct-1-ene] + CCCC[N+]1(C)CCCCC1.N#C[S-]
41.3 ± 2.8,37 ± 3,34.6 ± 2.4,32 ± 2,30.1 ± 2.1,,,,,,C=CCCCC [hex-1-ene] + CCCC[N+]1(C)CCCCC1.N#C[S-]
170 ± 12,142 ± 10,127 ± 9,111 ± 8,102 ± 7,,,,,,CCCCCCC [heptane] + CCCC[N+]1(C)CCCCC1.N#C[S-]
0.366 ± 0.033,0.368 ± 0.033,0.37 ± 0.033,0.371 ± 0.033,0.373 ± 0.033,,,,,,CO [methanol] + CCCC[N+]1(C)CCCCC1.N#C[S-]
5.18 ± 0.35,5.18 ± 0.35,5.16 ± 0.35,5.15 ± 0.35,5.14 ± 0.35,,,,,,CCc1ccccc1 [ethylbenzene] + CCCC[N+]1(C)CCCCC1.N#C[S-]
236 ± 16,206 ± 14,185 ± 13,161 ± 11,150 ± 10,,,,,,CCCCCCCC [octane] + CCCC[N+]1(C)CCCCC1.N#C[S-]
1.1 ± 0.07,1.13 ± 0.07,1.17 ± 0.07,1.2 ± 0.08,1.23 ± 0.08,,,,,,c1ccsc1 [thiophene] + CCCC[N+]1(C)CCCCC1.N#C[S-]
,,,,,3.08 ± 0.21,3.09 ± 0.21,3.11 ± 0.21,3.12 ± 0.21,3.13 ± 0.21,CCC(=O)CC [pentan-3-one] + CCCC[N+]1(C)CCCCC1.N#C[S-]
2.28 ± 0.16,2.31 ± 0.16,2.34 ± 0.16,2.36 ± 0.16,2.38 ± 0.16,,,,,,C1CCOC1 [tetrahydrofuran] + CCCC[N+]1(C)CCCCC1.N#C[S-]

# Second part, the compound before the results:
SMILES,activity coefficient (318.15 K),activity coefficient (328.15 K),activity coefficient (338.15 K),activity coefficient (348.15 K),activity coefficient (358.15 K),activity coefficient (318.2 K),activity coefficient (328.2 K),activity coefficient (338.2 K),activity coefficient (348.2 K),activity coefficient (358.2 K)
C#CCCCC [1-hexyne] + CCCC[N+]1(C)CCCCC1.N#C[S-],6.07 ± 0.41,6.11 ± 0.42,6.16 ± 0.42,6.19 ± 0.42,6.22 ± 0.42,,,,,
CCCCCCCCCC [decane] + CCCC[N+]1(C)CCCCC1.N#C[S-],487 ± 34,433 ± 30,390 ± 27,342 ± 24,311 ± 21,,,,,
COC(C)(C)C [2-methoxy-2-methylpropane] + CCCC[N+]1(C)CCCCC1.N#C[S-],,,,,,13.1 ± 0.9,12.7 ± 0.9,12.4 ± 0.8,12 ± 0.8,11.8 ± 0.8
CC(C)=O [acetone] + CCCC[N+]1(C)CCCCC1.N#C[S-],,,,,,1.52 ± 0.1,1.52 ± 0.1,1.53 ± 0.1,1.54 ± 0.1,1.55 ± 0.1
C=CCCCCC [1-heptene] + CCCC[N+]1(C)CCCCC1.N#C[S-],60.3 ± 4.1,55.5 ± 3.8,51.7 ± 3.5,47.9 ± 3.3,45.7 ± 3.1,,,,,
c1ccccc1 [benzene] + CCCC[N+]1(C)CCCCC1.N#C[S-],1.9 ± 0.13,1.92 ± 0.13,1.95 ± 0.13,1.97 ± 0.13,1.99 ± 0.14,,,,,
C1CCCCC1 [cyclohexane] + CCCC[N+]1(C)CCCCC1.N#C[S-],39.8 ± 2.7,35.9 ± 2.5,32.4 ± 2.2,29.4 ± 2,27.5 ± 1.9,,,,,
C1CCCC1 [cyclopentane] + CCCC[N+]1(C)CCCCC1.N#C[S-],27.5 ± 1.9,24.2 ± 1.7,22.1 ± 1.5,19.9 ± 1.4,18.9 ± 1.3,,,,,
C1CCCCCCC1 [cyclooctane] + CCCC[N+]1(C)CCCCC1.N#C[S-],60 ± 4,54 ± 4,49.1 ± 3.4,44.7 ± 3.1,42.1 ± 2.9,,,,,
"Cc1ccc(C)cc1 [1,4-dimethylbenzene] + CCCC[N+]1(C)CCCCC1.N#C[S-]",5.01 ± 0.34,5.04 ± 0.34,5.07 ± 0.35,5.1 ± 0.35,5.13 ± 0.35,,,,,
C1CCCCCC1 [cycloheptane] + CCCC[N+]1(C)CCCCC1.N#C[S-],44.3 ± 3,41.5 ± 2.8,37.4 ± 2.6,34.6 ± 2.4,32.7 ± 2.2,,,,,
CCCOCCC [dipropyl ether] + CCCC[N+]1(C)CCCCC1.N#C[S-],,,,,,35.1 ± 2.4,32.9 ± 2.3,31 ± 2.1,29.3 ± 2,28 ± 1.9
C#CCCCCC [1-heptyne] + CCCC[N+]1(C)CCCCC1.N#C[S-],9.17 ± 0.63,9.19 ± 0.63,9.2 ± 0.6,9.23 ± 0.63,9.28 ± 0.63,,,,,
CCO [ethanol] + CCCC[N+]1(C)CCCCC1.N#C[S-],0.647 ± 0.044,0.637 ± 0.044,0.627 ± 0.043,0.618 ± 0.043,0.612 ± 0.043,,,,,
Cc1ccccc1 [toluene] + CCCC[N+]1(C)CCCCC1.N#C[S-],3.14 ± 0.21,3.16 ± 0.22,3.19 ± 0.22,3.21 ± 0.22,3.23 ± 0.22,,,,,
C#CCCCCCC [1-octyne] + CCCC[N+]1(C)CCCCC1.N#C[S-],13.6 ± 0.9,13.6 ± 0.9,13.6 ± 0.9,13.7 ± 0.9,13.7 ± 0.9,,,,,
CCOCC [diethyl ether] + CCCC[N+]1(C)CCCCC1.N#C[S-],,,,,,12 ± 0.8,11.6 ± 0.8,11.1 ± 0.8,10.8 ± 0.7,10.5 ± 0.7
"Cc1cccc(C)c1 [1,3-dimethylbenzene] + CCCC[N+]1(C)CCCCC1.N#C[S-]",5.23 ± 0.36,5.25 ± 0.36,5.26 ± 0.36,5.27 ± 0.36,5.28 ± 0.36,,,,,
"Cc1ccccc1C [1,2-dimethylbenzene] + CCCC[N+]1(C)CCCCC1.N#C[S-]",4.15 ± 0.28,4.18 ± 0.28,4.21 ± 0.29,4.24 ± 0.29,4.26 ± 0.29,,,,,
